Species: Rattus norvegicus
Experiment: DrugMatrix - Regimen: Daily Repeat
Format: toxicity, organism-based, Sprague-Dawley
Parameters: regimen Daily Repeat, gender Male, age 6-8 weeks
Conditions: in vivo, iv, 20 mg/kg, dose level Low, vehicle 100 % SALINE; for ABSOLUTE BASOPHIL / ABSOLUTE EOSINOPHIL / ABSOLUTE LYMPHOCYTE / ABSOLUTE MONOCYTE / ABSOLUTE SEGMENTED NEUTROPHIL / BASOPHIL / EOSINOPHIL / ERYTHROCYTE COUNT / HEMATOCRIT / HEMOGLOBIN / LEUKOCYTE COUNT / LYMPHOCYTE / MEAN CORPUSCULAR HEMOGLOBIN / MONOCYTE / NEUTROPHIL / NUCLEATED RED BLOOD CELLS / PLATELET COUNT: tissue Blood; for ALANINE AMINOTRANSFERASE / ALBUMIN / ALKALINE PHOSPHATASE / ASPARTATE AMINOTRANSFERASE / BLOOD UREA NITROGEN / CARBON DIOXIDE / CHLORIDE / CHOLESTEROL / CREATINE PHOSPHOKINASE / CREATININE / GLUCOSE / LACTATE DEHYDROGENASE / LIPASE / PHOSPHORUS / POTASSIUM / SODIUM / TOTAL BILIRUBIN / TOTAL PROTEIN / URIC ACID: tissue Plasma

Q: With CCC[C@@H]1C[C@@H](C(=O)N[C@@H]([C@H]2O[C@H](SC)[C@H](O)[C@@H](O)[C@H]2O)[C@H](C)Cl)N(C)C1 [CLINDAMYCIN] as the molecule, how does the “ABSOLUTE BASOPHIL” value (72 h, time 3 day) read?
A: 0 CELLS/uL

Q: What about the “ABSOLUTE EOSINOPHIL” value (72 h, time 3 day) of the same molecule?
A: 40 CELLS/uL

Q: And the “ABSOLUTE LYMPHOCYTE” value (72 h, time 3 day)?
A: 9607.67 CELLS/uL

Q: What about the “ABSOLUTE MONOCYTE” value (72 h, time 3 day) of the same molecule?
A: 40 CELLS/uL

Q: What about the “ABSOLUTE SEGMENTED NEUTROPHIL” value (72 h, time 3 day) of the same molecule?
A: 712.33 CELLS/uL

Q: And the BASOPHIL (72 h, time 3 day)?
A: 0%

Q: What about the EOSINOPHIL (72 h, time 3 day) of the same molecule?
A: 0.33%

Q: And the “ERYTHROCYTE COUNT” value (72 h, time 3 day)?
A: 5.49 x10E6/uL

Q: What about the HEMATOCRIT (72 h, time 3 day) of the same molecule?
A: 34.93%

Q: And the HEMOGLOBIN (72 h, time 3 day)?
A: 13.7 G/DL

Q: And the “LEUKOCYTE COUNT” value (72 h, time 3 day)?
A: 10.4 x10E3/uL

Q: What about the LYMPHOCYTE (72 h, time 3 day) of the same molecule?
A: 92.67%

Q: What about the “MEAN CORPUSCULAR HEMOGLOBIN” value (72 h, time 3 day) of the same molecule?
A: 24.97 pg

Q: And the MONOCYTE (72 h, time 3 day)?
A: 0.33%

Q: What about the NEUTROPHIL (72 h, time 3 day) of the same molecule?
A: 6.67%

Q: And the “NUCLEATED RED BLOOD CELLS” value (72 h, time 3 day)?
A: 0 /100WBC

Q: What about the “PLATELET COUNT” value (72 h, time 3 day) of the same molecule?
A: 1194.33 x10E3/uL

Q: What about the “ALANINE AMINOTRANSFERASE” value (72 h, time 3 day) of the same molecule?
A: 42 u/L

Q: What about the ALBUMIN (72 h, time 3 day) of the same molecule?
A: 4.4 G/DL

Q: And the “ALKALINE PHOSPHATASE” value (72 h, time 3 day)?
A: 375.67 u/L

Q: And the “ASPARTATE AMINOTRANSFERASE” value (72 h, time 3 day)?
A: 82.67 u/L

Q: And the “BLOOD UREA NITROGEN” value (72 h, time 3 day)?
A: 19 mg/dL

Q: And the “CARBON DIOXIDE” value (72 h, time 3 day)?
A: 35.33 mmol/L

Q: And the CHLORIDE (72 h, time 3 day)?
A: 97 MEQ/L

Q: And the CHOLESTEROL (72 h, time 3 day)?
A: 81.33 mg/dL

Q: What about the “CREATINE PHOSPHOKINASE” value (72 h, time 3 day) of the same molecule?
A: 250 u/L

Q: What about the CREATININE (72 h, time 3 day) of the same molecule?
A: 0.19 mg/dL

Q: What about the GLUCOSE (72 h, time 3 day) of the same molecule?
A: 124.33 mg/dL

Q: And the “LACTATE DEHYDROGENASE” value (72 h, time 3 day)?
A: 260.67 u/L

Q: What about the LIPASE (72 h, time 3 day) of the same molecule?
A: 11 u/L

Q: What about the PHOSPHORUS (72 h, time 3 day) of the same molecule?
A: 9.63 mg/dL

Q: What about the POTASSIUM (72 h, time 3 day) of the same molecule?
A: 6.58 MEQ/L

Q: And the SODIUM (72 h, time 3 day)?
A: 143.4 MEQ/L

Q: What about the “TOTAL BILIRUBIN” value (72 h, time 3 day) of the same molecule?
A: 0.17 mg/dL

Q: And the “TOTAL PROTEIN” value (72 h, time 3 day)?
A: 6.4 G/DL

Q: And the “URIC ACID” value (72 h, time 3 day)?
A: 0.87 mg/dL

Q: And the “ABSOLUTE BASOPHIL” value (120 h, time 5 day)?
A: 0 CELLS/uL

Q: What about the “ABSOLUTE EOSINOPHIL” value (120 h, time 5 day) of the same molecule?
A: 97.33 CELLS/uL

Q: What about the “ABSOLUTE LYMPHOCYTE” value (120 h, time 5 day) of the same molecule?
A: 13386.67 CELLS/uL

Q: And the “ABSOLUTE MONOCYTE” value (120 h, time 5 day)?
A: 100.67 CELLS/uL

Q: And the “ABSOLUTE SEGMENTED NEUTROPHIL” value (120 h, time 5 day)?
A: 1348.67 CELLS/uL

Q: What about the BASOPHIL (120 h, time 5 day) of the same molecule?
A: 0%

Q: What about the EOSINOPHIL (120 h, time 5 day) of the same molecule?
A: 0.67%

Q: And the “ERYTHROCYTE COUNT” value (120 h, time 5 day)?
A: 5.84 x10E6/uL

Q: And the HEMATOCRIT (120 h, time 5 day)?
A: 35.8%

Q: And the HEMOGLOBIN (120 h, time 5 day)?
A: 14.27 G/DL

Q: And the “LEUKOCYTE COUNT” value (120 h, time 5 day)?
A: 14.93 x10E3/uL

Q: What about the LYMPHOCYTE (120 h, time 5 day) of the same molecule?
A: 89.67%

Q: What about the “MEAN CORPUSCULAR HEMOGLOBIN” value (120 h, time 5 day) of the same molecule?
A: 24.47 pg

Q: What about the MONOCYTE (120 h, time 5 day) of the same molecule?
A: 0.67%

Q: What about the NEUTROPHIL (120 h, time 5 day) of the same molecule?
A: 9%

Q: And the “NUCLEATED RED BLOOD CELLS” value (120 h, time 5 day)?
A: 0 /100WBC

Q: And the “PLATELET COUNT” value (120 h, time 5 day)?
A: 1266.67 x10E3/uL

Q: And the “ALANINE AMINOTRANSFERASE” value (120 h, time 5 day)?
A: 57.67 u/L

Q: What about the ALBUMIN (120 h, time 5 day) of the same molecule?
A: 4.33 G/DL

Q: What about the “ALKALINE PHOSPHATASE” value (120 h, time 5 day) of the same molecule?
A: 400.67 u/L

Q: And the “ASPARTATE AMINOTRANSFERASE” value (120 h, time 5 day)?
A: 85 u/L

Q: What about the “BLOOD UREA NITROGEN” value (120 h, time 5 day) of the same molecule?
A: 18.67 mg/dL

Q: And the “CARBON DIOXIDE” value (120 h, time 5 day)?
A: 35.33 mmol/L

Q: And the CHLORIDE (120 h, time 5 day)?
A: 100.33 MEQ/L

Q: And the CHOLESTEROL (120 h, time 5 day)?
A: 70.67 mg/dL

Q: And the “CREATINE PHOSPHOKINASE” value (120 h, time 5 day)?
A: 217 u/L

Q: What about the CREATININE (120 h, time 5 day) of the same molecule?
A: 0.19 mg/dL

Q: And the GLUCOSE (120 h, time 5 day)?
A: 148.33 mg/dL

Q: What about the “LACTATE DEHYDROGENASE” value (120 h, time 5 day) of the same molecule?
A: 152.67 u/L

Q: What about the LIPASE (120 h, time 5 day) of the same molecule?
A: 8.33 u/L

Q: And the PHOSPHORUS (120 h, time 5 day)?
A: 12.6 mg/dL

Q: And the POTASSIUM (120 h, time 5 day)?
A: 7.37 MEQ/L

Q: And the SODIUM (120 h, time 5 day)?
A: 144.4 MEQ/L

Q: And the “TOTAL BILIRUBIN” value (120 h, time 5 day)?
A: 0.2 mg/dL

Q: And the “TOTAL PROTEIN” value (120 h, time 5 day)?
A: 6.43 G/DL

Q: What about the “URIC ACID” value (120 h, time 5 day) of the same molecule?
A: 1.67 mg/dL

From ChEMBL document CHEMBL3885881, “DrugMatrix”
